Assay results from paper PMC7567588 (Science Advances, 2020).
*: point of attachment. ACC = NC(=O)Cc1cc(=O)oc2cc(N*)ccc12

Key:
human DUB UCH-L3 [1] = target: T1, human DUB UCH-L3 (Homo sapiens, UniProt P15374); assay type: biochemical
SARS-CoV-2 PLpro [2] = target: T2, SARS-CoV-2 PLpro (Severe acute respiratory syndrome coronavirus 2, UniProt P0DTD1)
SARS-CoV-2 PLpro [3] = target: T2, SARS-CoV-2 PLpro; remark: listed apart in the source
[4] = tested on: human DUBs in HeLa lysates; assay type: biochemical
human DUB UCH-L3 [5] = target: T1, human DUB UCH-L3; assay type: biochemical; remark: listed apart in the source

T1 sequence (P15374 whole entry, looked up): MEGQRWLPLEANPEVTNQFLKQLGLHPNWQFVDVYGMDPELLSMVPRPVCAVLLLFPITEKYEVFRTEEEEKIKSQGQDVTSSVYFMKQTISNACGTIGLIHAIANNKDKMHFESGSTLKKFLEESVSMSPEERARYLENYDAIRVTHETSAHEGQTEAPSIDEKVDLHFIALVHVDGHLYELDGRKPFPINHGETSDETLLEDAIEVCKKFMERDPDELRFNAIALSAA

Substance	substrate recognition (hydrolysis rate, RFU/s) (human DUB UCH-L3 [1])	substrate recognition (hydrolysis rate, RFU/s) (SARS-CoV-2 PLpro [2])	inhibition of DUB activity (residual activity) (SARS-CoV-2 PLpro [3])	Ub-VME cross-linking profile of HeLa lysates on titration of inhibitor [4]	inhibition of DUB activity (residual activity) (human DUB UCH-L3 [5])
Ac-LRGG-{ACC} [Ac-LRGG-ACC]	recognized	recognized	–	–	–
Ac-Abu(Bth)-Dap-Gly-Gly-VME [VIR250]	–	–	robustly inhibit	unaltered	practically no inhibition
